Assay results from paper PMC10447463, “Data-mining unveils structure–property–activity correlation of viral infectivity enhancing self-assembling peptides” (Nature Communications, 2023).

Assays:
[1] = system: HIV-1 infection of TZM-bl cells; assay: HIV-1 infectivity enhancement assay, β-galactosidase luminescence; type: cell-based; details: for Absolute Infectivity / RLU /s (Feb2021): figures match the 1.3 µM column; for Log10 Inf. rel. to EF-C: log10 of HIV-1 infection of TZM-bl cells relative to EF-C, Fig S15 source data, asymmetric std dev errors; for Log10 Infection Rel EF-C: log10 of infection relative to EF-C; for infectivity enhancement, in words: fibril-forming peptides with positive zeta-potential, low count rate
[2] = Turbidity, derived count rate of scattered light; type: physicochemical; details: for Count Rate / kcps: derived count rate of scattered light at 633 nm, 173°, from zeta-potential measurement, 0.1 mg/mL in 1 mM KCl after 1 d at 1 mg/mL in PBS, turbidity / microscopic aggregation, mean of triplicate; for Log Count Rate: log of derived count rate
Method in brief: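 One-day room-temperature aggregation at 1 mg/mL in PBS (pH 7.4) preceded measurement; samples then went into 1 mM KCl. Triplicates per sample, two independent experiments averaged.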

[3] = Feb2021, infectivity relative to virus only
[4] = Feb2021, log10 of infectivity relative to EF-C
[5] = Feb2021, n-fold infectivity relative to EF-C
[6] = infectivity class (low / medium / high) of each library peptide, main list in c1-c6, same classes repeated in sub-lists of sequences containing the hydrophobicity/charge patterns P+,H0,P+,H0,P0,H0,P0, P+,H0,P0,H0,P0,H0,P0, P+,H0,P0,H0
[7] = infectivity class (low / medium / high) of the peptide in the sequence-pattern analysis, Fig. S22-A4, class limits not given
[8] = infectivity enhancement relative to EF-C (=1), Feb2021 run
[9] = infectivity n-fold relative to virus only, Feb2021 run
[10] = log10 of infectivity relative to EF-C, Feb2021 run
[11] = derived count rate from zeta measurement, mean
[12] = derived count rate of scattered light
[13] = n-fold infection vs virus only, relative to that of EF-C, 1.3 µM peptide
[14] = log10 of derived count rate of scattered light, Figure 6C
[15] = logarithm of count rate in kcps
[16] = Feb2021 run, infectivity n-fold relative to virus alone
[17] = Feb2021 run, log10 of infectivity relative to EF-C
[18] = Feb2021 run, n-fold infectivity relative to EF-C
[19] = derived count rate of scattered light, mean, std deviation in separate column
[20] = HIV-1 infection relative to EF-C, Fig 23 plot, panels A and B, mean of 3 values
[21] = HIV-1 infection relative to EF-C, Fig 23 plot, single data point, replicate 1
[22] = HIV-1 infection relative to EF-C, Fig 23 plot, single data point, replicate 2
[23] = HIV-1 infection relative to EF-C, Fig 23 plot, single data point, replicate 3

KVKVQVVV [TG8]
Absolute Infectivity / RLU /s (Feb2021) ([1]; Feb2021): 820 RLU /s
n-fold to virus (Feb2021) [1, 3]: 1.473
Log10 of Rel to EFC (Feb2021) [1, 4]: -1.455
Rel-to EFC (Feb-2021) [1, 5]: 0.03506
infectivity [1, 6]: low
infectivity [1, 7]: low
Rel-to EFC (Feb-2021) [1, 8]: 0.03506
n-fold to virus (Feb2021) [1, 9]: 1.473
Log10 Inf. rel. to EF-C [1]: -1.455
Log10 of Rel to EFC (Feb2021) [1, 10]: -1.455
Zeta Count Rate Category ([2]; category 1 / 0, no key given): 1
Zeta Count Rate / kcps [2, 11]: 163.1 kcps
Zeta Count Rate / kcps [2, 12]: 163.1 kcps
Zeta Count Rate Category ([2]; key not given): 1

KYFIL [reference compound]
Log10 Infection Rel EF-C ([1]; Figure 7B): -1.14
Inf. rel. EF-C [1, 13]: 0.07
Count Rate / kcps [2]: 18903 kcps

KYKYQY [KB1]
Absolute Infectivity / RLU /s (Feb2021) ([1]; Feb2021): 230 RLU /s
n-fold to virus (Feb2021) [1, 3]: 0.4313
Log10 of Rel to EFC (Feb2021) [1, 4]: -1.989
Rel-to EFC (Feb-2021) [1, 5]: 0.01026
infectivity [1, 6]: low
Log10 Inf. rel. to EF-C [1]: -1.9887
Zeta Count Rate Category ([2]; category 1 / 0, no key given): 0
Zeta Count Rate / kcps [2, 12]: 31.53 kcps

LASLIYR [reference compound]
Log10 Infection Rel EF-C ([1]; Figure 7B): -1.2
Inf. rel. EF-C [1, 13]: 0.06
Count Rate / kcps [2]: 105 kcps

MKVIFLKDVKG [reference compound]
infectivity enhancement, in words [1]: do not enhance infectivity
Log10 Infection Rel EF-C ([1]; Figure 7B): -0.93
Inf. rel. EF-C [1, 13]: 0.12
Count Rate / kcps [2]: 137 kcps

NKGAII [reference compound]
Log10 Infection Rel EF-C ([1]; Figure 7B): -1.2
Inf. rel. EF-C [1, 13]: 0.06
Count Rate / kcps [2]: 68 kcps

RATVYV [reference compound]
Log10 Infection Rel EF-C ([1]; Figure 7B): -1.38
Inf. rel. EF-C [1, 13]: 0.04
Count Rate / kcps [2]: 42 kcps

RFWFWFW
Log10 Infection Rel EF-C ([1]; Figure 6C): -0.495
Inf. rel. EF-C [1, 13]: 0.32
Count Rate / kcps [2]: 30037.33333 kcps
Log10 Count Rate [2, 14]: 4.478
Log10 Count Rate [2, 15]: 4.478

RGDKIKIQINM [MG8a / CN17]
Absolute Infectivity / RLU /s (Feb2021) ([1]; Feb2021): 9554 RLU /s
n-fold to virus (Feb2021) [1, 3]: 17.36
Log10 of Rel to EFC (Feb2021) [1, 4]: -0.3838
Rel-to EFC (Feb-2021) [1, 5]: 0.4132
n-fold to virus (Feb2021) [1, 16]: 17.36
Log10 of Rel to EFC (Feb2021) [1, 17]: -0.3838
Rel-to EFC (Feb-2021) [1, 18]: 0.4132
infectivity [1, 6]: medium
Rel-to EFC (Feb-2021) [1, 8]: 0.4132
n-fold to virus (Feb2021) [1, 9]: 17.36
Log10 Inf. rel. to EF-C [1]: -0.3838
Log10 of Rel to EFC (Feb2021) [1, 10]: -0.3838
Zeta Count Rate Category ([2]; category 1 / 0, no key given): 0
Zeta Count Rate / kcps [2, 11]: 57.2 kcps
Zeta Count Rate / kcps [2, 12]: 57.2 kcps
Zeta Count Rate / kcps [2, 19]: 57.2 kcps
Zeta Count Rate Category ([2]; key not given): 0

RGDKIKIQINMC [psis29]
n-fold to virus (Feb2021) [1, 16]: 44.93
Log10 of Rel to EFC (Feb2021) [1, 17]: 0.02911
Rel-to EFC (Feb-2021) [1, 18]: 1.069
infectivity [1, 6]: high
infectivity [1, 7]: high
Rel-to EFC (Feb-2021) [1, 8]: 1.069
n-fold to virus (Feb2021) [1, 9]: 44.93
Log10 Inf. rel. to EF-C [1]: 0.02911
Log10 of Rel to EFC (Feb2021) [1, 10]: 0.02911
Zeta Count Rate / kcps [2, 11]: 1404 kcps
Zeta Count Rate / kcps [2, 19]: 1404 kcps
Zeta Count Rate Category ([2]; key not given): 1

RGDKIKIQINMWQ [MG9a]
Log10 of Rel to EFC (Feb2021) ([1]; Feb2021, Log10 of infectivity relative to EF-C): -0.1175
Rel-to EFC (Feb-2021) ([1]; Feb2021, n-fold enhancement relative to EF-C): 0.763
n-fold to virus (Feb2021) [1, 16]: 32.06
Log10 of Rel to EFC (Feb2021) [1, 17]: -0.1175
Rel-to EFC (Feb-2021) [1, 18]: 0.763
infectivity [1, 6]: high
infectivity [1, 7]: high
Log10 Inf. rel. to EF-C [1]: -0.1175
Zeta Count Rate Category ([2]; category 1 or 0 from count rate, key not given): 1
Zeta Count Rate / kcps ([2]; derived count rate of scattered light, mean, std deviation in next column): 1554 kcps
Zeta Count Rate / kcps [2, 19]: 1554 kcps

RGDSGGGGGGKIKIQIC [TM114 / RC17]
Rel-to EFC ([1]; Fig S8 panels B, D, infectivity enhancement relative to EF-C): 0.8654
n-fold to virus ([1]; Fig S8 panels B, D, infectivity n-fold relative to virus alone): 36.36
infectivity [1, 7]: high
Log10 Inf. rel. to EF-C [1]: -0.0628
Log Count Rate ([2]; Fig S8 panels A, C, asymmetric log errors): 4.018
Log Count Rate ([2]; Fig S8 panels B, D): 4.018
Count Rate ([2]; Fig S8 panels B, D, turbidity, derived count rate of scattered light): 10416.2

RGECKFKFQF [CN16]
Absolute Infectivity / RLU /s (Feb2021) ([1]; Feb2021): 7411 RLU /s
n-fold to virus (Feb2021) [1, 3]: 13.99
Log10 of Rel to EFC (Feb2021) [1, 4]: -0.4776
Rel-to EFC (Feb-2021) [1, 5]: 0.3329
infectivity [1, 6]: medium
Log10 Inf. rel. to EF-C [1]: -0.4776
Zeta Count Rate Category ([2]; category 1 / 0, no key given): 1
Zeta Count Rate / kcps [2, 12]: 219.3 kcps

RGEKIKIQINM [CN18]
Absolute Infectivity / RLU /s (Feb2021) ([1]; Feb2021): 7838 RLU /s
n-fold to virus (Feb2021) [1, 3]: 10.23
Log10 of Rel to EFC (Feb2021) [1, 4]: -0.6134
Rel-to EFC (Feb-2021) [1, 5]: 0.2436
infectivity [1, 6]: medium
Log10 Inf. rel. to EF-C [1]: -0.6134
Zeta Count Rate Category ([2]; category 1 / 0, no key given): 1
Zeta Count Rate / kcps [2, 12]: 594.6 kcps

RINFWFW
Log10 Infection Rel EF-C ([1]; Figure 6C): -1.347
Inf. rel. EF-C [1, 13]: 0.04
Count Rate / kcps [2]: 50995.8 kcps
Log10 Count Rate [2, 14]: 4.708
Log10 Count Rate [2, 15]: 4.708

RIRFHIW
Log10 Infection Rel EF-C ([1]; Figure 6C): -1.984
Inf. rel. EF-C [1, 13]: 0.01
Count Rate / kcps [2]: 12.4 kcps
Log10 Count Rate [2, 14]: 1.093
Log10 Count Rate [2, 15]: 1.093

RLRLTLC [CN13]
Absolute Infectivity / RLU /s (Feb2021) ([1]; Feb2021): 1334 RLU /s
n-fold to virus (Feb2021) [1, 3]: 2.165
Log10 of Rel to EFC (Feb2021) [1, 4]: -1.288
Rel-to EFC (Feb-2021) [1, 5]: 0.05153
infectivity [1, 6]: low
Log10 Inf. rel. to EF-C [1]: -1.288
Zeta Count Rate Category ([2]; category 1 / 0, no key given): 1
Zeta Count Rate / kcps [2, 12]: 125.6 kcps

RQGNINIVA [reference compound]
infectivity enhancement, in words [1]: do not enhance infectivity
Log10 Infection Rel EF-C ([1]; Figure 7B): -0.93
Inf. rel. EF-C [1, 13]: 0.12
Count Rate / kcps [2]: 36 kcps

RVHLGLG
Inf. rel. EF-C [1, 20]: 0.0206
Inf. rel. EF-C [1, 21]: 0.01527
Inf. rel. EF-C [1, 22]: 0.01985
Inf. rel. EF-C [1, 23]: 0.02667
Log10 Infection Rel EF-C ([1]; Figure 6C): -1.686
Inf. rel. EF-C [1, 13]: 0.02
Count Rate / kcps [2]: 28.33 kcps
Log10 Count Rate [2, 14]: 1.4523
Log10 Count Rate [2, 15]: 1.4523

RVRVTVT
Inf. rel. EF-C [1, 20]: 0.05962
Inf. rel. EF-C [1, 21]: 0.04632
Inf. rel. EF-C [1, 22]: 0.07129
Inf. rel. EF-C [1, 23]: 0.06124
Log10 Infection Rel EF-C ([1]; Figure 6C): -1.225
Inf. rel. EF-C [1, 13]: 0.06
Count Rate / kcps [2]: 25.33 kcps
Log10 Count Rate [2, 14]: 1.404
Log10 Count Rate [2, 15]: 1.404

VHDCVNITIK [reference compound]
Log10 Infection Rel EF-C ([1]; Figure 7B): -0.27
Inf. rel. EF-C [1, 13]: 0.53
Abs Infection at 0.26µM ([1]; peptide 0.26 µM, mean of n = 3, Figure 7A): 46666.66667
Abs Infection at 1.3 µM ([1]; peptide 1.3 µM, mean of n = 3, Figure 7A): 86910
Abs Infection at 6.5 µM ([1]; peptide 6.5 µM, mean of n = 3, Figure 7A): 136243.3333
Count Rate / kcps [2]: 12542 kcps
